In patent US5352599A, “Co-enzyme-independent L-sorbosone dehydrogenase of gluconobacter oxydans: isolation, characterization, and cloning and autologus expression of the gene” (Hoffmann-La Roche Inc., priority 1988, dated 1994):

Key:
[1] = biological target: T1, membrane-bound L-sorbosone dehydrogenase from Gluconobacter oxydans IFO 12258, purified, coenzyme independent (Gluconacetobacter liquefaciens, UniProt Q44091); assay: L-sorbosone dehydrogenase enzyme assay (DCIP reduction at 600 nm, 25° C.); type: biochemical
T1 construct: endogenous in cells; host or cells: Gluconobacter oxydans IFO 12258 (enzyme isolated from the strain itself)
T1 sequence (Q44091 1-449): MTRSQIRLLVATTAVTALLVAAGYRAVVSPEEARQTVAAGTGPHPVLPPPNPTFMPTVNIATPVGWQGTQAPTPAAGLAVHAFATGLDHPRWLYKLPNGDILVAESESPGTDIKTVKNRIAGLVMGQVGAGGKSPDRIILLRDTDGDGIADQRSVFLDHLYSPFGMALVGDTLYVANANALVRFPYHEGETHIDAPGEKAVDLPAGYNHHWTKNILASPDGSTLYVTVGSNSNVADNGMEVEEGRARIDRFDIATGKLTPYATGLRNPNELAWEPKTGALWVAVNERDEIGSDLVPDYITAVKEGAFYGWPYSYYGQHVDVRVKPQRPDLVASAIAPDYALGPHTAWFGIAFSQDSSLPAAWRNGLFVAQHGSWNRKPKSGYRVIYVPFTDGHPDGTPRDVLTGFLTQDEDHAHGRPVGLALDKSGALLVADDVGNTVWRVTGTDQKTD
Protocol: (§1) Enzyme assay was performed at 25° C. by measuring the decrease of absorbance at 600nm of DCIP spectrophotometrically. One unit of enzyme activity was defined as the amount of enzyme which catalyzed the reduction of 1 μmole of DCIP per minute.
(§2) The extinction coefficient of DCIP at pH 7.0 was taken as 9.45mM^-1. The basal reaction mixture is shown below. The mixture was prepared just before the assay.
(§3) A cuvette with 1cm light path contained 0.4ml of basal mixture, 20μl of 10mM phenazine methosulphate, 10μl of enzyme solution and 20μl of 110mM L-sorbosone solution in a final volume of 0.45ml. A reference cuvette contains all components except the substrate. The reaction was initiated by the addition of the substrate. Enzyme activity was measured as the initial reduction rate of DCIP.

[2] = substrate: O=CC(=O)[C@@H](O)[C@H](O)[C@@H](O)CO; assay: as above; type: biochemical, Gluconobacter oxydans IFO 12258; conditions: other: pH7.0, purified enzyme, pH 7.0
Protocol: as §1, §2, §3

O=C(O)CI [ICH2 COOH, Monoiodoacetic acid]
inhibition of the enzyme (in words) [1]: moderately inhibited
inhibition at 10000 µM ([1]; read-out: Relative activity (%) in presence of inhibitor): 64.3%

[N-]=[N+]=[N-].[Na+] [NaN3]
Relative activity (%) in presence of inhibitor ([1]; inhibitor 25 mM, L-Sorbosone as the substrate, None = 100): 89.4%

B1: membrane-bound L-sorbosone dehydrogenase from Gluconobacter oxydans IFO 12258, purified, coenzyme independent (Gluconacetobacter liquefaciens) (protein)
chain: T1 sequence (Q44091 1-449)
notes: endogenous in cells; host or cells: Gluconobacter oxydans IFO 12258 (enzyme isolated from the strain itself)
Km [2]: 16.7 mM
